Values belong to the compound of their own block, whether it stands above or below them.
Target: T1, human VAChT (Homo sapiens, UniProt Q16572)
T1 sequence (Q16572 1-532): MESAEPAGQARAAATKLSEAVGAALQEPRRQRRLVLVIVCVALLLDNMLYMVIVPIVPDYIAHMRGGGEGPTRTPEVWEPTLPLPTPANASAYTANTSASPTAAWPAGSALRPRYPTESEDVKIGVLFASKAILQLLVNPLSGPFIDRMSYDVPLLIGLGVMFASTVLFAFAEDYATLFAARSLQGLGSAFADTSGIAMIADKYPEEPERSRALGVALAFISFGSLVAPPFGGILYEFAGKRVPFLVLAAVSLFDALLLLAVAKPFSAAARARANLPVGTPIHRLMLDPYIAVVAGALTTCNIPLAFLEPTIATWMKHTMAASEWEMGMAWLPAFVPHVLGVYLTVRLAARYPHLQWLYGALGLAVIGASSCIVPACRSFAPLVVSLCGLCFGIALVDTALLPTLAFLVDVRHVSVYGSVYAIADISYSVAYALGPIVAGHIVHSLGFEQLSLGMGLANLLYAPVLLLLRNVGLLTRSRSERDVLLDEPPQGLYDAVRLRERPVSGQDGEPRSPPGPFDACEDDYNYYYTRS
Experiment: VAChT binding assay, displacement of
Settings: for VAChT selectivity Kiσ1/Ki VAChT: Ki for σ1 divided by Ki for VAChT; for selectivity for VAChT over σ receptors (σ1 and σ2): versus either sigma receptor type; for decrease in affinity for VAChT compared to 9: relative to compound 9; for decrease in affinity for VAChT compared to 19e: relative to compound 19e

SMILES: CNc1ccc(C(=O)C2CCN(C3Cc4ccccc4CC3O)CC2)cc1 (racemic) [Compound 24b, (1-(3-Hydroxy-1,2,3,4-tetrahydronaphthalen-2-yl)piperidin-4-yl)(4-(methylamino)phenyl) methanone]
VAChT selectivity Kiσ1/Ki VAChT: 100

SMILES: O=C(c1cccnc1F)C1CCN(C2Cc3ccccc3CC2O)CC1 (racemic) [Compound 19k, (2-Fluoropyridin-3-yl)(1-(3-hydroxy-1,2,3,4-tetrahydronaphthalen-2-yl)piperidin-4-yl)methanone]
VAChT selectivity Kiσ1/Ki VAChT: 100

SMILES: O=C(c1cncc(F)c1)C1CCN(C2Cc3ccccc3CC2O)CC1 (racemic) [Compound 19g, (5-Fluoropyridin-3-yl)(1-(3-hydroxy-1,2,3,4-tetrahydronaphthalen-2-yl)piperidin-4-yl)methanone]
selectivity for VAChT over σ receptors (σ1 and σ2): > 70 fold

lower affinity for VAChT compared to benzoyl counterpart 5 (relative to compound 5): 5 fold
SMILES: O=C(c1cccnc1)C1CCN(C2Cc3ccccc3CC2O)CC1 (racemic) [Compound 19c, (1-(3-Hydroxy-1,2,3,4-tetrahydronaphthalen-2-yl)piperidin-4-yl)(pyridin-3-yl)methanone]

SMILES: Cn1ccc(C(=O)C2CCN(C3Cc4ccccc4CC3O)CC2)c1 (racemic) [Compound 19b, (1-(3-Hydroxy-1,2,3,4-tetrahydronaphthalen-2-yl)piperidin-4-yl)(1-methyl-1H-pyrrol-3-yl)methanone]
decrease in affinity for VAChT compared to 9: 4-5 fold

higher VAChT binding affinity than 31a (relative to compound 31a): 60 fold
SMILES: Cn1cccc1C(=O)C1CCN(C2Cc3c(N)cccc3CC2O)CC1 (racemic) [Compound 30a, (1-(8-Amino-3-hydroxy-1,2,3,4-tetrahydronaphthalen-2-yl)piperidin-4-yl)(1-methyl-1Hpyrrol-2-yl)methanone]

SMILES: O=C(c1ccc(OCCF)nc1)C1CCN(C2Cc3ccccc3CC2O)CC1 (racemic) [Compound 26a, (6-(2-Fluoroethoxy)pyridin-3-yl)(1-(3-hydroxy-1,2,3,4-tetrahydronaphthalen-2-yl)-piperidin-4-yl)methanone]
decrease in affinity for VAChT compared to 19e: 4.5 fold

SMILES: COc1cccnc1C(=O)C1CCN(C2Cc3ccccc3CC2O)CC1 (racemic) [Compound 19f, (1-(3-Hydroxy-1,2,3,4-tetrahydronaphthalen-2-yl)piperidin-4-yl)(3-methoxypyridin-2-yl)methanone]
decrease in affinity for VAChT compared to 19e: 15 fold

SMILES: Cn1cccc1C(=O)C1CCN(C2Cc3ccccc3CC2O)CC1 (racemic) [Compound 19a, (1-(3-Hydroxy-1,2,3,4-tetrahydronaphthalen-2-yl)piperidin-4-yl)(1-methyl-1H-pyrrol-2-yl)methanone]
decrease in affinity for VAChT compared to 9: 4-5 fold
selectivity for VAChT over σ receptors (σ1 and σ2): > 70 fold

From paper PMC3804129 (Journal of medicinal chemistry, 2013)
